Data reported in ChEMBL document CHEMBL2331425, “Triazolo and imidazo dihydropyrazolopyrimidine potassium channel antagonists” (Bioorg Med Chem Lett, 2013).
pIC50: −log10 of the molar value. Each block holds one compound with its values, some of them ahead of it.

How the values were obtained:
[1] = molecular target: T1, Potassium voltage-gated channel subfamily A member 5 (Homo sapiens, UniProt P22460); assay: Antagonist activity at human Kv1.5 expressed in mouse L929 cells assessed as inhibition of delayed rectifier repolarization current at 0.3 uM by patch clamp assay relative to control; assay type: cell-based
T1 sequence (P22460 whole entry): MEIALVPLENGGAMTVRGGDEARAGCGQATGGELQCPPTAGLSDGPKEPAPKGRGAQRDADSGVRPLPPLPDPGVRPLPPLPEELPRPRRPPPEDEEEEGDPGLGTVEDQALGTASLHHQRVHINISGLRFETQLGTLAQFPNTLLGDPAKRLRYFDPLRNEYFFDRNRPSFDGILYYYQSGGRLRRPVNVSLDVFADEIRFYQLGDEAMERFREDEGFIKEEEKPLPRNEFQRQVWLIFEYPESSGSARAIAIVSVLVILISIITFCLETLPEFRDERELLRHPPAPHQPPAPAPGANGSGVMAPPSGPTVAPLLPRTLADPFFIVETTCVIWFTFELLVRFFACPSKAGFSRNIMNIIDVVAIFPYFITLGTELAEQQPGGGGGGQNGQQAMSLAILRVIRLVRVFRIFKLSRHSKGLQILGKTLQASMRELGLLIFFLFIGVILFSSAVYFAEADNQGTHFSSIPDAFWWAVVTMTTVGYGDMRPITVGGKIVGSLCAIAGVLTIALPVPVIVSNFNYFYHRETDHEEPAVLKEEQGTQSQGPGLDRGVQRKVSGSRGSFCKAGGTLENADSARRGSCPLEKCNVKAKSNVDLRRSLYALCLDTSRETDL

[2] = molecular target: T1, Potassium voltage-gated channel subfamily A member 5; assay: Antagonist activity at human Kv1.5 expressed in mouse L929 cells assessed as inhibition of delayed rectifier repolarization current by patch clamp assay; assay type: cell-based
[3] = molecular target: T2, Nuclear receptor subfamily 1 group I member 2 (Homo sapiens, UniProt O75469); assay: Transactivation of PXR (unknown origin)
T2 sequence (O75469 whole entry): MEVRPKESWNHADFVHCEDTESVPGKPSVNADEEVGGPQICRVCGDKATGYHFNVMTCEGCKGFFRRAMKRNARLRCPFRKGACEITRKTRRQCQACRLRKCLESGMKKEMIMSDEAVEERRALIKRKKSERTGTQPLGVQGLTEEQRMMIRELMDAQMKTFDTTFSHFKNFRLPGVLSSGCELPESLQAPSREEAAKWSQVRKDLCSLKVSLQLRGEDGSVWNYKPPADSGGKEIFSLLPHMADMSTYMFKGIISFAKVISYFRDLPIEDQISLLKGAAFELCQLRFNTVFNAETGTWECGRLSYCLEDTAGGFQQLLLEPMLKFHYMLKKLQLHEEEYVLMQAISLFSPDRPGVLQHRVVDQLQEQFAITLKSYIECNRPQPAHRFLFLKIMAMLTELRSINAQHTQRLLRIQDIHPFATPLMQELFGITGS

[4] = Clearance in Sprague-Dawley rat at 1 mg/kg, iv; assay type: ADME, organism-based; design: dose 1 mg/kg, route intravenous; conditions: in vivo
[5] = Half life in Sprague-Dawley rat at 1 mg/kg, iv; assay type: ADME, organism-based; design: dose 1 mg/kg, route intravenous; conditions: in vivo
hERG (KCNH2) = hERG (KCNH2) (Homo sapiens, UniProt Q12809); assay: Inhibition of human ERG current in HEK293 cells at 10 uM by patch clamp method relative to control; assay type: cell-based; conditions: HEK293 cells expressing human ERG
Sequence of hERG (KCNH2) (Q12809 whole entry): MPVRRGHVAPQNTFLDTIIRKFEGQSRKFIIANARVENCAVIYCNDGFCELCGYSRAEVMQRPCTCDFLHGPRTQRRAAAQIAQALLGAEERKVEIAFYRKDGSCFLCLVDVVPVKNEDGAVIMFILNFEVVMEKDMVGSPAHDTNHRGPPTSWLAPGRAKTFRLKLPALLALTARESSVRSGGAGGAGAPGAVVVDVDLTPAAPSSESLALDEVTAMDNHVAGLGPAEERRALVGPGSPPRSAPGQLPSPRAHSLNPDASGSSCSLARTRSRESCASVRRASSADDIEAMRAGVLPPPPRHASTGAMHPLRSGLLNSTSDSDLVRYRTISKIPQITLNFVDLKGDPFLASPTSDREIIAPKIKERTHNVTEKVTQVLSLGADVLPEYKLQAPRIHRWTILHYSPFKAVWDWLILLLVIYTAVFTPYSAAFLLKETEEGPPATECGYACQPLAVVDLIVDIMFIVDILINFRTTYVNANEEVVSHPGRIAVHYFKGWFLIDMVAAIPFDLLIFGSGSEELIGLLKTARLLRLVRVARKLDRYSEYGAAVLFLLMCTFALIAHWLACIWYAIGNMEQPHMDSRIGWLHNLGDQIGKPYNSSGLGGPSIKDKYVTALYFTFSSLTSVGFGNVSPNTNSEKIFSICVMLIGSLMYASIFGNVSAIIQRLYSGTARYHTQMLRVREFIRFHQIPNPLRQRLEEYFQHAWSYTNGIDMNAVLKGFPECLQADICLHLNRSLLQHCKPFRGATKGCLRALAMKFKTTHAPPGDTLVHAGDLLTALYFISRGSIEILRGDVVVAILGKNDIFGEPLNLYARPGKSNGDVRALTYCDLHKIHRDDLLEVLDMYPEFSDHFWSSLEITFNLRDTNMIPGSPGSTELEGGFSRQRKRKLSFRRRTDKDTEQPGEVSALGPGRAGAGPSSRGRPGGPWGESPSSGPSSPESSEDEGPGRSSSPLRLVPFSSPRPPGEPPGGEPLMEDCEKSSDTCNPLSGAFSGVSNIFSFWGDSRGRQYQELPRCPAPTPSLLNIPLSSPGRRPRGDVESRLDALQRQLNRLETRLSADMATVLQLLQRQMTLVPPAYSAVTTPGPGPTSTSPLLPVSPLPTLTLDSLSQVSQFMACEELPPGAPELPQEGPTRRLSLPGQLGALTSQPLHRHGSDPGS

inhibition [1]: 11%
Structure (SMILES): CC1=C(c2ncnn2-c2ccccn2)[C@@H](c2ccc(Cl)c(Cl)c2)n2nc(C(F)(F)F)cc2N1

pIC50 [2]: 6.89 | EC20 [3]: 110 nM
Structure (SMILES): CCn1ccnc1C1=C(C)Nc2cc(C(F)(F)F)nn2[C@@H]1c1ccc(Cl)c(Cl)c1

pIC50 [2]: 6.69 | clearance [4]: 63 mL/min/kg | half-life [5]: 54 min | EC20 [3]: 110 nM
Structure (SMILES): CC1=C(c2nccn2C(C)C)[C@@H](c2ccc(Cl)c(Cl)c2)n2nc(C(F)(F)F)cc2N1

pIC50 [2]: 7.13
Structure (SMILES): CC1=C(c2ncnn2-c2ccccc2F)[C@@H](c2ccc(Cl)c(Cl)c2)n2nccc2N1

pIC50 [2]: 7.05
Structure (SMILES): CC1=C(c2ncnn2C(C)C)[C@@H](c2ccc(Cl)c(Cl)c2)n2nccc2N1
inhibition at 10 µM (hERG (KCNH2)): 26%

pIC50 [2]: 6.39 | EC20 [3]: 440 nM
Structure (SMILES): CC1=C(c2ncnn2-c2cc(C)ccn2)[C@@H](c2ccc(Cl)c(Cl)c2)n2nc(C(F)(F)F)cc2N1

pIC50 [2]: 6.72
Structure (SMILES): CC1=C(c2ncnn2-c2cccc(Cl)n2)[C@@H](c2ccc(Cl)c(Cl)c2)n2nc(C(F)(F)F)cc2N1

pIC50 [2]: 7.10
Structure (SMILES): CC1=C(c2ncnn2-c2ccc(C)cc2)[C@@H](c2ccc(Cl)c(Cl)c2)n2nccc2N1

pIC50 [2]: 6.72
Structure (SMILES): CCn1ncnc1C1=C(C)Nc2ccnn2[C@@H]1c1ccc(Cl)c(Cl)c1

inhibition [1]: 14%
Structure (SMILES): CC1=C(c2ncn(-c3ccc(C)cc3)n2)[C@@H](c2ccc(Cl)c(Cl)c2)n2nc(C)cc2N1

pIC50 [2]: 7.01 | clearance [4]: 45 mL/min/kg | half-life [5]: 36 min | EC20 [3]: 640 nM
Structure (SMILES): CCOCCn1ccnc1C1=C(C)Nc2cc(C(F)(F)F)nn2[C@@H]1c1ccc(Cl)c(Cl)c1

pIC50 [2]: 6.78
Structure (SMILES): CC1=C(c2ncnn2C2CCC2)[C@@H](c2ccc(Cl)c(Cl)c2)n2nc(C(F)(F)F)cc2N1

pIC50 [2]: 7.03 | clearance [4]: 101 mL/min/kg | half-life [5]: 36 min
Structure (SMILES): CC1=C(c2ncnn2C2CCC2)[C@@H](c2ccc(Cl)c(Cl)c2)n2nc(C)cc2N1
inhibition at 10 µM (hERG (KCNH2)): 40%

pIC50 [2]: 6.14
Structure (SMILES): CC1=C(c2ncn(-c3ccccc3C)n2)[C@@H](c2ccc(Cl)c(Cl)c2)n2nc(C)cc2N1

pIC50 [2]: 6.55
Structure (SMILES): CC1=C(c2ncnn2C2CCC2)[C@@H](c2ccc(Cl)c(Cl)c2)n2nc(C(C)(C)C)cc2N1

pIC50 [2]: 6.59 | EC20 [3]: 70 nM
Structure (SMILES): CC1=C(c2ncnn2-c2cccc(F)n2)[C@@H](c2ccc(Cl)c(Cl)c2)n2nc(C(F)(F)F)cc2N1

clearance [4]: 134 mL/min/kg | half-life [5]: 36 min
Structure (SMILES): CC1=C(C(=O)N2CCN(c3ccc(F)cc3)CC2)[C@@H](c2ccc(Cl)c(Cl)c2)n2nccc2N1

pIC50 [2]: 6.64
Structure (SMILES): CC1=C(c2ncnn2CC2CC2)[C@@H](c2ccc(Cl)c(Cl)c2)n2nccc2N1

pIC50 [2]: 6.90
Structure (SMILES): CC1=C(c2ncnn2C2CCCCC2)[C@@H](c2ccc(Cl)c(Cl)c2)n2nc(C)cc2N1

inhibition [1]: 25%
Structure (SMILES): COCc1cc2n(n1)[C@H](c1ccc(Cl)c(Cl)c1)C(c1ncnn1C1CCC1)=C(C)N2

inhibition [1]: 23%
Structure (SMILES): CC1=C(c2ncn(-c3ccccc3F)n2)[C@@H](c2ccc(Cl)c(Cl)c2)n2nc(C)cc2N1

pIC50 [2]: 7.01
Structure (SMILES): CC1=C(c2ncnn2-c2cccc(F)c2)[C@@H](c2ccc(Cl)c(Cl)c2)n2nccc2N1

pIC50 [2]: 6.65
Structure (SMILES): CC1=C(c2ncnn2C(C)(C)C)[C@@H](c2ccc(Cl)c(Cl)c2)n2nccc2N1
